Laboratory results published in ChEMBL document CHEMBL1201862, “PubChem BioAssay data set” (2004).
Blank lines part the entries; values can stand above or below the compound they belong to. Calls of active or inactive are those of the source.

Experiments:
[1] = target: NACHT, LRR and PYD domains-containing protein 3 (Homo sapiens, UniProt Q96P20); assay: NALP3 inhibitors in yeast, dose response, luminescent (AID 488799); type: functional
[2] = Luminescence-based dose response cell-based high throughput screening assay for cytotoxic compounds using the IEC-6 intestinal epithelial cell line. [Related pubchem assays: 1858 (Summary AID.), 1825 (Counterscreen.), 1907 (Confirmation screen.)]; type: functional
[3] = target: Tyrosine-protein kinase FRK (Homo sapiens, UniProt P42685); type: functional;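 note: FRK tested as one member of a kinome panel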
[4] = target: Serine/threonine-protein kinase 17A (Homo sapiens, UniProt Q9UEE5); type: functional
[5] = target: cAMP-dependent protein kinase catalytic subunit PRKX (Homo sapiens, UniProt P51817); type: functional
[6] = target: Dual specificity protein kinase CLK2 (Homo sapiens, UniProt P49760); type: functional
Aurora kinase A = Aurora kinase A (Homo sapiens, UniProt O14965); type: functional;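 note: value from the Navigating the Kinome kinase panel profiling, panel entry STK6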
[7] = target: Tyrosine-protein kinase receptor UFO (Homo sapiens, UniProt P30530); type: functional
[8] = target: Receptor tyrosine-protein kinase erbB-4 (Homo sapiens, UniProt Q15303); type: functional;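 note: ERBB4 member of a kinome-wide kinase profiling panel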
Focal adhesion kinase 1 = Focal adhesion kinase 1 (Homo sapiens, UniProt Q05397); type: functional;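 note: measured as one member of a kinome panel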
[9] = target: RAC-alpha serine/threonine-protein kinase (Homo sapiens, UniProt P31749); type: functional;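 note: AKT1 affinity measured as one member of a kinome-wide kinase profiling panel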
[10] = target: MAP kinase-activated protein kinase 3 (Homo sapiens, UniProt Q16644); type: functional;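 note: value comes from a kinome-wide profiling panel in which MAPKAPK3 is one of the panel members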
[11] = target: Tyrosine-protein kinase SYK (Homo sapiens, UniProt P43405); type: functional
[12] = target: Protein kinase C iota type (Homo sapiens, UniProt P41743); type: functional;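 note: measured within a kinome-wide kinase panel, PRKCI as panel member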
[13] = target: Mitogen-activated protein kinase kinase kinase 20 (Homo sapiens, UniProt Q9NYL2); type: functional
[14] = target: Testis-specific serine/threonine-protein kinase 2 (Homo sapiens, UniProt Q96PF2); type: functional;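 note: part of the Navigating the Kinome panel, target entry STK22B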
[15] = target: Cyclin-dependent kinase 2 (Homo sapiens, UniProt P24941); type: functional;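 note: CDK2 measured as one member of a broad kinome profiling panel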
[16] = target: Dual specificity tyrosine-phosphorylation-regulated kinase 4 (Homo sapiens, UniProt Q9NR20); type: functional
[17] = target: Testis-specific serine/threonine-protein kinase 1 (Homo sapiens, UniProt Q9BXA7); type: functional
[18] = target: Tyrosine-protein kinase Blk (Homo sapiens, UniProt P51451); type: functional;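 note: obtained as one member of a kinome-wide kinase assay panel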
[19] = target: Dual specificity protein kinase CLK4 (Homo sapiens, UniProt Q9HAZ1); type: functional
Aspartyl aminopeptidase = target: T1, Aspartyl aminopeptidase (Plasmodium falciparum 3D7, UniProt Q8I2J3)
T1 sequence (Q8I2J3 whole entry): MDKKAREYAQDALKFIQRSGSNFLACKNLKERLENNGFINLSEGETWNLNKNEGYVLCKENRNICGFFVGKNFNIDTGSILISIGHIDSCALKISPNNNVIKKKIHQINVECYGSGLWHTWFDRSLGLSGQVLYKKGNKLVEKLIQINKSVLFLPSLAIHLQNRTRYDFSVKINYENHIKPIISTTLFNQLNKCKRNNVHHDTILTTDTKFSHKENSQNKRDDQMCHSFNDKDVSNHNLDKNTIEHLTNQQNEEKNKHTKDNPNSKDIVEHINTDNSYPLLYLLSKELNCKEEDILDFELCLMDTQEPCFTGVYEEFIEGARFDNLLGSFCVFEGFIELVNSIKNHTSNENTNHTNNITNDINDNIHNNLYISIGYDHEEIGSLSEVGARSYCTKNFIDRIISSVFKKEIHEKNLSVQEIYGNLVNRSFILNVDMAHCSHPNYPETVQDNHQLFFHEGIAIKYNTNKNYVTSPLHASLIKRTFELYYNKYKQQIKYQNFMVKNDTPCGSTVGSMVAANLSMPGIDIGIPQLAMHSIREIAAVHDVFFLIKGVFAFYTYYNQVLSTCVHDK

[20] = Luminescence Cell-Based Dose Response HTS to Identify Activators of Luciferase Translation or Activity in H4 […] Cells. [Related pubchem assays: 1829 (Project Summary), 1814 (Primary HTS)]; type: functional
[21] = target: T2, Zinc finger protein mex-5 (Caenorhabditis elegans, UniProt Q9XUB2); assay: potency of MEX-5 RNA-binding blockers – biochemical, C. elegans, fluorescence polarization, dose response (AID 1960)
T2 sequence (Q9XUB2 whole entry): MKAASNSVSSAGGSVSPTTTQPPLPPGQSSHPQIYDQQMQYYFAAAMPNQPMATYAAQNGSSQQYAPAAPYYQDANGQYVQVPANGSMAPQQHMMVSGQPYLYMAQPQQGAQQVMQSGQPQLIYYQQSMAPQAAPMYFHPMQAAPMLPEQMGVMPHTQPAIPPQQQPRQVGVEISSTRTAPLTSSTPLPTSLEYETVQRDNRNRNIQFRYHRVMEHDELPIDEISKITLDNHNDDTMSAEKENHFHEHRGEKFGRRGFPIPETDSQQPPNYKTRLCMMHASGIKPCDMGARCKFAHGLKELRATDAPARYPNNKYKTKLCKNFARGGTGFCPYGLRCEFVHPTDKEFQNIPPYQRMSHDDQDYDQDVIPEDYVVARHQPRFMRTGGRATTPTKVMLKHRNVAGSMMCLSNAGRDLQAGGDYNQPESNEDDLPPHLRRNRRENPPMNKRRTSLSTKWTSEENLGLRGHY

[22] = target: T3, RNA-binding protein pos-1 (Caenorhabditis elegans, UniProt G5EF15); assay: disruptors of C. elegans POS-1 RNA interaction – biochemical, fluorescence polarization, dose response (AID 1964);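 note: purified POS-1 fused to maltose binding protein made in E. coli; potency of compounds blocking POS-1 binding to fluorescent RNA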
T3 sequence (G5EF15 whole entry): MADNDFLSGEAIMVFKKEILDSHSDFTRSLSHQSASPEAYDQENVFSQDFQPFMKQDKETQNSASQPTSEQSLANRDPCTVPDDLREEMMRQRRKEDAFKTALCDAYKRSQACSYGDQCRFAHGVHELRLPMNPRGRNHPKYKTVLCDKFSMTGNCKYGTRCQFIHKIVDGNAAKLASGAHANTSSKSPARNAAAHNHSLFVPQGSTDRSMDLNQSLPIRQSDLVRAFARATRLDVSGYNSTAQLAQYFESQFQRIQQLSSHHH

[23] = target: Induced myeloid leukemia cell differentiation protein Mcl-1 (Homo sapiens, UniProt Q07820); type: functional
Induced myeloid leukemia cell differentiation protein Mcl-1, sequence (Q07820 whole entry): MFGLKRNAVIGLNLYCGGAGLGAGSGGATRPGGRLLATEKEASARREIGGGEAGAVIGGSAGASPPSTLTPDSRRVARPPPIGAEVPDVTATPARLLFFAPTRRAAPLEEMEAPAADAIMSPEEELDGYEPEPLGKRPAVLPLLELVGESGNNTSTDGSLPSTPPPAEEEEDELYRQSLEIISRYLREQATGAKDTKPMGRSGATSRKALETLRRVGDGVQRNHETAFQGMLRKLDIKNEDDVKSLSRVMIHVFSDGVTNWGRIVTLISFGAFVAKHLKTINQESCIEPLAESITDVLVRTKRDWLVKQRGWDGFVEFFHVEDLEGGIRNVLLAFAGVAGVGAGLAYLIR

Dual specificity protein kinase CLK4, sequence (Q9HAZ1 whole entry): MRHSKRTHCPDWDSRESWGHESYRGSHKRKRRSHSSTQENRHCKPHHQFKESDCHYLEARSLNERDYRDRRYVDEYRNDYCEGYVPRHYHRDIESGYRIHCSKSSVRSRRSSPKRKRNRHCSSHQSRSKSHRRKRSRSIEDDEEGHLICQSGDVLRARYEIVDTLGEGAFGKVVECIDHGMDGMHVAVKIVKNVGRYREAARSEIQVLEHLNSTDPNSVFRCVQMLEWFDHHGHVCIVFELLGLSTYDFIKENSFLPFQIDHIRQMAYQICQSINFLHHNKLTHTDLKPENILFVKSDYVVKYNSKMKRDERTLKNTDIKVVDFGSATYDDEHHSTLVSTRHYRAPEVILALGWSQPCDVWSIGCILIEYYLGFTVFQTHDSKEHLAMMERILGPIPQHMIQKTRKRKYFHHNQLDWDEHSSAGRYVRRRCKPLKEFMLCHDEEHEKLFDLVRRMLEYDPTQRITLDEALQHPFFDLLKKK
Tyrosine-protein kinase receptor UFO, sequence (P30530 whole entry): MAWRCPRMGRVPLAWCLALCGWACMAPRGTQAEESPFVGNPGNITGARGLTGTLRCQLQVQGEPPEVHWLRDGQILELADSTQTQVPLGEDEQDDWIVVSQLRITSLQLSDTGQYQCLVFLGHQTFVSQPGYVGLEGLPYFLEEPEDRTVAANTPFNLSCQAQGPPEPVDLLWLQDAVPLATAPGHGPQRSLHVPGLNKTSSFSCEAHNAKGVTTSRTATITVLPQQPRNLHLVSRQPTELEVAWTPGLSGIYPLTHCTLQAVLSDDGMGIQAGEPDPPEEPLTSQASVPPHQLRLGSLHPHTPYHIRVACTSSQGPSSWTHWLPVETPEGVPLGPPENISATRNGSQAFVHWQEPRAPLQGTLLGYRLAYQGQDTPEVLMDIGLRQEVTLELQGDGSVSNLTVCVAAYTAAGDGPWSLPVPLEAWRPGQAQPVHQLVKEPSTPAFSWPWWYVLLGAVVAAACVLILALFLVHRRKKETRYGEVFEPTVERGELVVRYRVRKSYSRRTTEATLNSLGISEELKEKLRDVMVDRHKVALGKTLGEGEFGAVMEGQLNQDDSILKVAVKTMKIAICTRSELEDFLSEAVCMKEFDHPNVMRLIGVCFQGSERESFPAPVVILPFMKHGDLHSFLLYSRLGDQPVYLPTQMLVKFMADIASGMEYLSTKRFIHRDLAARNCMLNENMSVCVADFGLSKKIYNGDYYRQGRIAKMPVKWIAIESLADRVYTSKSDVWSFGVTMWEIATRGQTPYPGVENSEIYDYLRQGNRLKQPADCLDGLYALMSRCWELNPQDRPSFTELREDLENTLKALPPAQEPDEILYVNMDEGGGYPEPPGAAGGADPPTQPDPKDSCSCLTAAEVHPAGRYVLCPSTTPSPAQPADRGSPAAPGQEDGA
MAP kinase-activated protein kinase 3, sequence (Q16644 whole entry): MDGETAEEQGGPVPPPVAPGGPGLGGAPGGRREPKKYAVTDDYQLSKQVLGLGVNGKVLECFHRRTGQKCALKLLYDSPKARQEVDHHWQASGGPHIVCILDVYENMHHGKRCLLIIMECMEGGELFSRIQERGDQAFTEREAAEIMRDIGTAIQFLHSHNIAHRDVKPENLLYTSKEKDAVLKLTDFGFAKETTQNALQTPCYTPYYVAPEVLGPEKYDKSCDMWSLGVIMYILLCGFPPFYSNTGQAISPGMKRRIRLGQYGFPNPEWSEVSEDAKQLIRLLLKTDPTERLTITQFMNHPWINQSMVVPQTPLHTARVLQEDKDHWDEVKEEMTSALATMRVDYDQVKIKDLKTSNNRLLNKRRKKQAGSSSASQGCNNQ
Receptor tyrosine-protein kinase erbB-4, sequence (Q15303 whole entry): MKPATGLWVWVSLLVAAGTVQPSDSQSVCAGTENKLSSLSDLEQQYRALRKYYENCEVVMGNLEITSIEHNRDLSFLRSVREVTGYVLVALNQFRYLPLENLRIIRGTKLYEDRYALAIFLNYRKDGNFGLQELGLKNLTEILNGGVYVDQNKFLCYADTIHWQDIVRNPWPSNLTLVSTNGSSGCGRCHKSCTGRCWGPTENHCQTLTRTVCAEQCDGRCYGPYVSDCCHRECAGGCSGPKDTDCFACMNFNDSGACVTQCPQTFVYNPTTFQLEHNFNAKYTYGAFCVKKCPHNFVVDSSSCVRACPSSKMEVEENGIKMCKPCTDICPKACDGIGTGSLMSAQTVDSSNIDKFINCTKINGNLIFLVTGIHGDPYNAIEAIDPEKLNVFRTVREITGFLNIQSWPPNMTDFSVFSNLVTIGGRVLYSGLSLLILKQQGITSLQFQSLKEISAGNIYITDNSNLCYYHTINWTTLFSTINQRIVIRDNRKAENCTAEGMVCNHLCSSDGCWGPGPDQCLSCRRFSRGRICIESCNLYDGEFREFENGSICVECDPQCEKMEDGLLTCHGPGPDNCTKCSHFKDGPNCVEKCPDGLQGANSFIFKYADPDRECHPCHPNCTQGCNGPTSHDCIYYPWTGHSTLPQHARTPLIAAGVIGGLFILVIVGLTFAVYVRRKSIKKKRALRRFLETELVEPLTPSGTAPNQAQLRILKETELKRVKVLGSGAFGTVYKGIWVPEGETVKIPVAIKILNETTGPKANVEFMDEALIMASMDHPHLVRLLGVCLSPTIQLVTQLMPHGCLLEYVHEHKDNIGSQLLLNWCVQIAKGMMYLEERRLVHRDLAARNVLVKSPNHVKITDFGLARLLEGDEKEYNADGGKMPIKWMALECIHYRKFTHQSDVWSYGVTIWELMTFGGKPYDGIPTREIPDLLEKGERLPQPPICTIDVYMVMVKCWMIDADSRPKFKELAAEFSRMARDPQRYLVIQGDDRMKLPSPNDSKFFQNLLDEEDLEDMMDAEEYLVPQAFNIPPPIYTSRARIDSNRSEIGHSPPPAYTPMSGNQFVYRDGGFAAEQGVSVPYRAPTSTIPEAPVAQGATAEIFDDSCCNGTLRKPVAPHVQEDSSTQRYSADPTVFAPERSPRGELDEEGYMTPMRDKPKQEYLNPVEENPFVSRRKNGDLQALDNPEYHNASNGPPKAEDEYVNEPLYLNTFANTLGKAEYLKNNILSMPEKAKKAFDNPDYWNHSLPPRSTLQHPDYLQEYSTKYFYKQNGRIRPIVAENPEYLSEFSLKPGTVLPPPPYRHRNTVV
Dual specificity tyrosine-phosphorylation-regulated kinase 4, sequence (Q9NR20 whole entry): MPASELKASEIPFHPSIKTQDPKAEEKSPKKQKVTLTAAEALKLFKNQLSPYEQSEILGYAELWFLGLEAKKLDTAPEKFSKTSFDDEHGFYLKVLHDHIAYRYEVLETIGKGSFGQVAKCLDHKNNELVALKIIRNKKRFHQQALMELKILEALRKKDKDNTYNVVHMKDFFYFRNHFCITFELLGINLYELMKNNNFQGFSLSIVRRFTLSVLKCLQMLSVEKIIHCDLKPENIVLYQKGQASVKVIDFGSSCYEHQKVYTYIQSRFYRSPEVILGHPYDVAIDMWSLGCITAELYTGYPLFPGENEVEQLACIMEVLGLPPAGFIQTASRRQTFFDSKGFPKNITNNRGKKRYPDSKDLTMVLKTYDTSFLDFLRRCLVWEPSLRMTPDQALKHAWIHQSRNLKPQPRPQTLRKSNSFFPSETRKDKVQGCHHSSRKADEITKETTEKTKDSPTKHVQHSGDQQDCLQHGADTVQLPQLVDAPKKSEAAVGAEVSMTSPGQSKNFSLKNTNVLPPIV
Dual specificity protein kinase CLK2, sequence (P49760 whole entry): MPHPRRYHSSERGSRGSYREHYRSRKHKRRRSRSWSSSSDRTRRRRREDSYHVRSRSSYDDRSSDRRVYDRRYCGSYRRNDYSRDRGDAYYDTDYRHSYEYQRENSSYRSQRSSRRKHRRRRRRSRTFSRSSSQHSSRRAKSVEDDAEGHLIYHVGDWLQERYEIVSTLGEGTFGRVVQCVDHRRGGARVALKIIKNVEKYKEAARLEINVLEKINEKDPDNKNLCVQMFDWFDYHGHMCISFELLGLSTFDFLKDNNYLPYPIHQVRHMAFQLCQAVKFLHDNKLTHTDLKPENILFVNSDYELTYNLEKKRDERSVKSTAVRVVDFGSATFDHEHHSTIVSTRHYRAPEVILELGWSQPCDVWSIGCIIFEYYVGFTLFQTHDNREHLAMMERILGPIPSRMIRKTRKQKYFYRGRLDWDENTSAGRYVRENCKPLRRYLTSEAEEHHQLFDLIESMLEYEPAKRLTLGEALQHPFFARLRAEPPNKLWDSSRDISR
Testis-specific serine/threonine-protein kinase 1, sequence (Q9BXA7 whole entry): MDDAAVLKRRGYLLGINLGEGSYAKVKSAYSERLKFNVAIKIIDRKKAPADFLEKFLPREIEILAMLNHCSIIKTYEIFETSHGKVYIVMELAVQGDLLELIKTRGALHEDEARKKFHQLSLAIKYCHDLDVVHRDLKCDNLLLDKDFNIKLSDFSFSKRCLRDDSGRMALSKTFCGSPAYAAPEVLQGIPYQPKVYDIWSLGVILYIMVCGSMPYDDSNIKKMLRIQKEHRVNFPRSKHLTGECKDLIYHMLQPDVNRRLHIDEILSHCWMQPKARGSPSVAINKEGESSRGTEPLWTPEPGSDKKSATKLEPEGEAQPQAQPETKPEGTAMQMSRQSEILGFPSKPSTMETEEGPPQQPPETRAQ

Structure (SMILES): CC(=O)N(/N=C1\Sc2ccccc2C1=O)c1ccccc1C
IC50 [1]: 8340 nM (active)

Structure (SMILES): CCC(=O)NC(c1ccc(C)cc1)c1ccc2cccnc2c1O (stereo unspecified)
IC50 [2]: 1620 nM (active)

Ki [3]: 200 nM (active)
Ki [4]: > 3980 nM (inactive)
Ki [5]: > 1580 nM (inactive)
Ki [6]: 1000 nM (active)
Ki (Aurora kinase A): 79.4 nM (active)
Ki [7]: 15.8 nM (active)
Ki [8]: > 3980 nM (inactive)
Ki (Focal adhesion kinase 1): 631 nM (active)
Ki [9]: > 7940 nM (inactive)
Ki [10]: > 10000 nM (inactive)
Ki [11]: 1580 nM (active)
Ki [12]: > 5010 nM (inactive)
Ki [13]: 3160 nM (active)
Ki [14]: > 1580 nM (inactive)
Ki [15]: > 7940 nM (inactive)
Ki [16]: 6310 nM (active)
Ki [17]: > 1580 nM (inactive)
Ki [18]: 126 nM (active)
Ki [19]: 126 nM (active)
Structure (SMILES): Cc1cccc(NC(=O)Nc2ccc3c(c2)CCc2sc4ncnc(N)c4c2-3)c1

Structure (SMILES): Cc1ccc(-n2sc3ccccc3c2=O)cc1
IC50 (Aspartyl aminopeptidase): 1250 nM (active)
EC50 [20]: 23300 nM (active)

Structure (SMILES): N/C(=N\N=C/c1ccc(-c2ccc(O)c(C(=O)O)c2)o1)N[N+](=O)[O-]
EC50 [21]: 26100 nM (active)
EC50 [22]: 29900 nM (active)
IC50 [23]: 3860 nM (active)
